biological target: T1, TLR9 (Homo sapiens, UniProt Q9NR96); experiment: Human PBMC cell-based assay, TLR9 agonist ODN-2216 stimulation, cytokine (IL-6 and IFNα) readout; details: human PBMCs, ODN-2216 3 μM, 6 hours; Table 26; read-out: TLR-9 EC50
T1 construct: lymphocytes, monocytes and dendritic cells that express TLR7, TLR8 and TLR9; endogenous in cells; host or cells: human PBMCs from healthy donors
T1 sequence (Q9NR96 26-1032): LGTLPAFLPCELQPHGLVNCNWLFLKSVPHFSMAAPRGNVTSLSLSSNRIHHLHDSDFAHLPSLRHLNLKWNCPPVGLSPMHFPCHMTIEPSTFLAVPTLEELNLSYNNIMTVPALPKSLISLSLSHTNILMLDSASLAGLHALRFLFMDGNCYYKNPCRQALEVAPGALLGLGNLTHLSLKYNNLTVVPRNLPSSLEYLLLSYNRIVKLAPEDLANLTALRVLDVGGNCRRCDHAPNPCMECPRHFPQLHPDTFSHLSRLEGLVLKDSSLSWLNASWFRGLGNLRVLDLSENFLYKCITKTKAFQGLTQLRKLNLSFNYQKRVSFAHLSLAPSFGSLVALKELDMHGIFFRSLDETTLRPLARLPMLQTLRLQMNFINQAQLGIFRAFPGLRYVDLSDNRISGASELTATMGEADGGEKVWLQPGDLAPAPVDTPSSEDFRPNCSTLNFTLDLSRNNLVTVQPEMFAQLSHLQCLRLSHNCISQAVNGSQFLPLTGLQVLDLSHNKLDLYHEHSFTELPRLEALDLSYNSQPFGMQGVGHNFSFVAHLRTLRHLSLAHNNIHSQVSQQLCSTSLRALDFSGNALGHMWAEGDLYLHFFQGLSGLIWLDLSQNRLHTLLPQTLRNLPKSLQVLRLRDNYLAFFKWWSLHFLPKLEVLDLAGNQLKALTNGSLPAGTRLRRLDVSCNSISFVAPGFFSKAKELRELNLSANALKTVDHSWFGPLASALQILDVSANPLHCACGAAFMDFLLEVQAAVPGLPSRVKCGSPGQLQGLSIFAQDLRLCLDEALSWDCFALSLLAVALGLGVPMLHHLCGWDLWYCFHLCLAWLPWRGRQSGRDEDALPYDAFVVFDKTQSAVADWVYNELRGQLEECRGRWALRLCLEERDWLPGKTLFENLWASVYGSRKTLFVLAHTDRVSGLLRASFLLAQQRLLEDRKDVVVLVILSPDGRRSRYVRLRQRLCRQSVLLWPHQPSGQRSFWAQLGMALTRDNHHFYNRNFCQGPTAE
Procedure, shortened: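 Readout is IL-6 and IFNα in supernatants, quantified by electrochemiluminescence, with EC50 from a sigmoidal fit of cytokine versus concentration. Healthy-donor human PBMCs, 100,000 per well, got antagonist for 1 h at 37 °C, then 6 h agonist exposure: TLR7 via GS-986 at 400 nM final, TLR9 via ODN-2216 at 3 μM final.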

Row | Compound | EC50 [nM]
1 | Cc1cc(-c2[nH]c3cc(-c4ccc(N5CCNCC5)nc4)ccc3c2C)cc(C)n1 [Example 1, 2-(2,6-dimethylpyridin-4-yl)-3-methyl-6-(6-(piperazin-1-yl)pyridin-3-yl)-1H-indole] | 51.9
2 | CCc1c(-c2cc(C)c3ncnn3c2)[nH]c2cc(-c3ccc(N4CCNCC4)nc3)ccc12 [Example 167, 6-(3-ethyl-6-(6-(piperazin-1-yl)pyridin-3-yl)-1H-indol-2-yl)-8-methyl-[1,2,4]triazolo[1,5-a]pyridine] | 393
3 | Cc1cc(-c2[nH]c3cc(C4CCNCC4)ccc3c2C(C)C)cn2ncnc12 [Example 55] | 3980
4 | Cc1c(-c2cc(C)c3ncnn3c2)[nH]c2cc(-c3ccc(N4CCNCC4)nc3)ccc12 [Example 71] | 630

The remaining compounds from weak to strong by EC50, led by results:

Row | EC50 [nM] | Compound
5 | 502 | CCc1c(-c2cc(OC)c3ncnn3c2)[nH]c2cc(-c3ccc(N4CCNCC4)nc3)ccc12 [Example 169]
6 | 186 | Cc1cc(-c2[nH]c3cc(-c4ccc(N5CCNCC5)nc4)ccc3c2C2CC2)cn(C)c1=O [Example 165]
7 | 181 | Cc1cc(-c2[nH]c3cc(C4CCCNC4)ccc3c2C)cc(C)n1 (stereo not drawn) [Example 53]
8 | 136 | Cc1cc(-c2[nH]c3cc(C4CCNCC4)ccc3c2C)cc(C)n1 [Example 48, 2-(2,6-dimethylpyridin-4-yl)-3-methyl-6-(piperidin-4-yl)-1H-indole]
9 | 37.5 | Cc1cc(-c2[nH]c3cc(-c4ccc(N5CCN(CCO)CC5)nc4)ccc3c2C)cc(C)n1 [Example 37, 2-(4-(5-(2-(2,6-dimethylpyridin-4-yl)-3-methyl-1H-indol-6-yl)pyridin-2-yl)piperazin-1-yl)ethan-1-ol]

— patent US20250002471A1 (Gilead Sciences, Inc., priority 2020, published 2025)
